Test results published in US7687494B2, “Substituted spirobenzazepines” (Janssen Pharmaceutica NV, priority 2003, dated 2010).

How the values were obtained:
human V1a receptor [1] = target: T1, human V1a receptor (Homo sapiens, UniProt P37288); assay: V1a vasopressin receptor functional activity (intracellular calcium mobilization, FLIPR, V1a-HEK cells); format: cell-based; details: V1a (first value of V1a/V2); vasopressin-challenged transfected HEK-293 cells
Description: The V1a receptor is a G-protein coupled receptor, which upon activation triggers an increase in intracellular calcium mobilization. To evaluate compounds for their functional V1a receptor activity, HEK-293 cells were transfected with the human V1a receptor (V1a-HEK cells). HEK-293 cells were grown in DMEM (Dulbecco's modified Eagle Media) supplemented with 10% FBS and glutamine. HEK-cells were passed biweekly by trypsinization and seeded into 96 well plates at 33,000 cells per well. HEK-293 cells were transfected with human V1a receptor DNA using DMRIE-C reagent from Life Technologies (Carlsbad, Calif.). Stable lines were generated by selecting cells grown in culture media containing geneticin. After growing in Packard Clear-View black 96 well plates for 4-6 days, V1a-HEK cells were loaded with the calcium-sensitive fluorescence dye, FLUO-3 AM. Changes in intracellular calcium mobilization were measured by quantitating intracellular fluorescence using FLIPR (Fluorometric Imaging Plate Reader; Molecular Devices, Sunnyvale, Calif.). Test compounds were first added to the cells and the resulting changes in fluorescence measured to detect receptor agonistic activity. Five minutes later the cells were challenged with vasopressin to test compounds for their antagonistic activity. Receptor antagonists inhibit the ability of vasopressin to stimulate increases in intracellular fluorescence. IC50's were calculated.

human V2 receptor [2] = target: T2, human V2 receptor (Homo sapiens, UniProt P30518); assay: In-vitro binding assay, 3H-arginine-8-vasopressin, V2 membranes; details: V2 (second value of V1a/V2)
Description: (§1) Assay buffer is 50 mM Tris-Cl, 5 mM MgCl2, 0.1% BSA (pH 7.5) containing 5 μg/ml of aprotinin, leupeptin, pepstatin, 50 μg/ml bacitracin, and 1 mM Pefabloc (4-(2-Aminoethyl)-benzenesulfonyl fluoride, hydrochloride manufactured by Roche Diagnostics Corporation, Indianapolis, Ind. and distributed by Boehringer Mannheim). H3 vasopressin is ^3H-arginine-8-vasopressin (NEN Life Sciences, Boston, Mass.; 68.5 Ci/mmol, final concentration in assay is 0.65-0.75 nM). Into wells of 96-well round bottom polypropylene plates are added buffer, test compound, membrane (containing human V1a or V2 receptor), and H3 vasopressin. The reaction plates are allowed to sit at room temperature for one hour. The samples are filtered through Unifilter GF/C plates (PerkinElmer Life Sciences, Boston, Mass.) presoaked in 0.3 polyethyleneimine. The plates are washed 5 times with cold physiological saline containing 0.05% Tween 20. After drying, the bottom of the filter plates are sealed and 0.025 ml of Microscint-20 (Packard Instrument Co, Meriden, Conn.) is added to each filter. The top of the plate is sealed, and the plate is counted. Non-specific binding is determined by the addition of 1.25 μM arginine-8-vasopressin in those wells. % Inh. is calculated
(§2) [formula] as follows: (B) V1a Vasopressin Receptor Functional Activity

human V1a receptor [3] = target: T1, human V1a receptor; assay: In-vitro binding assay, 3H-arginine-8-vasopressin, V1a membranes; details: V1a (first value of V1a/V2)
Description: as §1, §2

human V2 receptor [4] = target: T2, human V2 receptor; assay: V2 vasopressin receptor functional activity (cAMP accumulation, V2-HEK cells); format: cell-based; parameters: expressed in transfected cells; host or cells: HEK-293; details: V2 (second value of V1a/V2); vasopressin-stimulated cAMP in transfected HEK-293 cells
Description: The V2 receptor is also a G-protein coupled receptor which when activated induces an increase in cAMP turnover. Antagonism against the V2 receptor is determined by measuring cAMP accumulation in transfected HEK-293 cells expressing the human V-2 receptor (V2-HEK cells). Compounds are tested for their ability to block the stimulatory effects of vasopressin on cAMP accumulation. The cell content of cAMP is measured by radioimmunoassay using NEN flashplates.

T2 sequence (P30518 whole entry): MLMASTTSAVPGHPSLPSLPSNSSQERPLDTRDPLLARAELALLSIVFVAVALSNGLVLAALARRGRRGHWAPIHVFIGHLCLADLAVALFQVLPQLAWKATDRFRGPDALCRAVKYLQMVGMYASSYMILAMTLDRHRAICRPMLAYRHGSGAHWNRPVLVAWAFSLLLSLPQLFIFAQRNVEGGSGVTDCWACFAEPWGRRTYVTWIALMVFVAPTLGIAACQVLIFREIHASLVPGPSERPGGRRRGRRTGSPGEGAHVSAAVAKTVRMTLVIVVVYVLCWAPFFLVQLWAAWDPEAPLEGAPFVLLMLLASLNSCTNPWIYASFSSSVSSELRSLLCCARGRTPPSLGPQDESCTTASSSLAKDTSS
T1 sequence (P37288 whole entry): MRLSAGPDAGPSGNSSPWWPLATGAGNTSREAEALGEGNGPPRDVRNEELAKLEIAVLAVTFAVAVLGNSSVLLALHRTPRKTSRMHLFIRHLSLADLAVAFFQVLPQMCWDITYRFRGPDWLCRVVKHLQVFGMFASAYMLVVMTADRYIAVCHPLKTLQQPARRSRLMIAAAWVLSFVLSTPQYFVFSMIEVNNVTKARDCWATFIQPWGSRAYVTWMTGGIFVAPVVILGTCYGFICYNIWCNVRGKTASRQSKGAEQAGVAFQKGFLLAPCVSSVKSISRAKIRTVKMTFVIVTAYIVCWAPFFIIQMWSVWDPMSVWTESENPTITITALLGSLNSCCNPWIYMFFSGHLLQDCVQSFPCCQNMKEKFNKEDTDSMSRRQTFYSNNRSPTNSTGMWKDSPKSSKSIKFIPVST

In the case of `O=C(O)C1=C[C@@]2(CC1)CCN(C(=O)c1ccc(NC(=O)c3cc(F)ccc3Cl)cc1)c1ccccc1C2` [reference compound], the IC50 (human V1a receptor [1]) is reported as 380 nM, the IC50 (human V2 receptor [2]) is reported as 53 nM and the IC50 (human V1a receptor [3]) is reported as 13 nM. For the same compound, the IC50 (human V2 receptor [4]) was 100 nM.

For `CCOc1cc(C(=O)N2CC[C@]3(C=C(C(=O)O)CC3)Cc3ccccc32)ccc1NC(=O)c1cc(F)ccc1Cl` [Compound 31, (R)-4-(2-Chloro-5-fluorobenzoyl-3-ethoxy-4-aminobenzoyl)-4-aza-3′-carboxy-[6,4]-spiro-[5,6]-benzoundec-2′-ene], the IC50 (human V1a receptor [1]) was 50 nM, the IC50 (human V2 receptor [2]) was 71 nM and the IC50 (human V1a receptor [3]) was 8 nM. It also gave an IC50 (human V2 receptor [4]) of 150 nM.

Work on `COc1cc(C(=O)N2CC[C@]3(C=C(C(=O)O)CC3)Cc3ccccc32)ccc1NC(=O)c1cc(F)ccc1Cl` [Compound 29, (R)-4-(2-Chloro-5-fluorobenzoyl-3-methoxy-4-aminobenzoyl)-4-aza-3′-(carboxy)-[6,4]-spiro-[5,6]-benzoundec-2′-ene] yielded an IC50 (human V1a receptor [1]) of 38 nM, an IC50 (human V2 receptor [2]) of 30 nM and an IC50 (human V1a receptor [3]) of 5 nM. The IC50 (human V2 receptor [4]) was 52 nM.

In the case of `CN(C)CCNC(=O)C1=CC2(CC1)CCN(C(=O)c1ccc(NC(=O)c3ccccc3-c3ccccc3)cc1)c1ccccc1C2` (racemic) [A, 4-(2-phenylbenzoyl-4-aminobenzoyl)-3′-[2-(N,N-dimethylaminoethylcarbony)]-4-aza-[6,4]-spiro-[5,6]-benzoundec-2′-ene, reference compound], the IC50 (human V1a receptor [1]) is reported as 4 nM, the IC50 (human V2 receptor [2]) is reported as 11 nM and the IC50 (human V1a receptor [3]) is reported as 5 nM.
